According to ChEMBL document CHEMBL1201862, “PubChem BioAssay data set” (2004):
The source made the active and inactive calls.

Legend:
[1] = A cytotoxicity screen of small molecule inhibitors of the PhoP region in Salmonella typhi identified in the primary screen. [Related pubchem assays: 1850, 1864, 1985 ]; format: functional
Cytochrome P450 2D6 = Cytochrome P450 2D6 (Homo sapiens, UniProt P10635);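 further: CYP2D6 member of a cytochrome P450 panel assay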
Cytochrome P450 2C9 [2] = molecular target: T1, Cytochrome P450 2C9 (Homo sapiens, UniProt P11712); conditions: Potency
T1 sequence (P11712 whole entry): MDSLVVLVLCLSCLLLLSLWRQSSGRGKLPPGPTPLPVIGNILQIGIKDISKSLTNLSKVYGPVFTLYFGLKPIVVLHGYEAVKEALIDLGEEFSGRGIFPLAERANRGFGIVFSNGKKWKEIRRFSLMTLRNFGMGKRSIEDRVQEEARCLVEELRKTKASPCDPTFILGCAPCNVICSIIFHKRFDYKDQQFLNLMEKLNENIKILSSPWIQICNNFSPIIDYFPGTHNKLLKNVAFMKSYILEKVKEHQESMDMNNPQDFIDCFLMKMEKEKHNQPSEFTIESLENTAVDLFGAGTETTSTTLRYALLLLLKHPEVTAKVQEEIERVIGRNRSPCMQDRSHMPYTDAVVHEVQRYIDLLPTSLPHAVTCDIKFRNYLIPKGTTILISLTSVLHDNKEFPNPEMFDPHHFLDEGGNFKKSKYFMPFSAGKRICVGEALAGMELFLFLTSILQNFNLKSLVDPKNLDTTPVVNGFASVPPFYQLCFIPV

Cytochrome P450 2C9 [3] = molecular target: T1, Cytochrome P450 2C9
[4] = alpha-synuclein stem-loop luciferase translation blockers – H4 neuroglioma cells, luminescence, confirmation (AID 1988); format: functional, cell-based
[5] = Luminescence Cell-Based Dose Retest to Confirm Inhibitors of Cancer Stem Cells. [Related pubchem assays (depositor defined):AID2717, AID2721]; format: functional; conditions: Homo sapiens
Galanin receptor type 3 = molecular target: T2, Galanin receptor type 3 (Homo sapiens, UniProt O60755); assay: Fluorescence-based cell-based primary high throughput dose response assay to identify antagonists of the Galanin Receptor 3 (GalR3).; format: functional
T2 sequence (O60755 whole entry): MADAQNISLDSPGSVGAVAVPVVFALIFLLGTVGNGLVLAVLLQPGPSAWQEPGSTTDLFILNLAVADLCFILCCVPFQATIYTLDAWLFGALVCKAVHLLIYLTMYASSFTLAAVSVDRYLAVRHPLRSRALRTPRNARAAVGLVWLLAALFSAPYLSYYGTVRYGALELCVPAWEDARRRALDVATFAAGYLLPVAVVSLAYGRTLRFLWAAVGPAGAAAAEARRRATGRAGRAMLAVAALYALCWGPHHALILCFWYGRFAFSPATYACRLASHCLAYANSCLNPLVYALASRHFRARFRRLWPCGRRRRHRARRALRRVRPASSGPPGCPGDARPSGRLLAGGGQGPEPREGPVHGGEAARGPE

[6] = Luminescence Cell-Based Dose Response HTS to Identify Inhibitors of 5'UTR Stem-Loop Driven Prion Protein mRNA Translation in H4 Neuroglioblastoma Cells. [Related pubchem assays: 1827 (Project Summary), 1813 (Primary HTS)]; format: functional
Vero = assay: mammalian cell viability reduction – secondary assay, cytotoxicity control for West Nile virus antiviral project, dose response (AID 1650); format: functional; conditions: Chlorocebus sabaeus
[7] = luciferase reporter signal suppression in cells – H4 neuroglioma cells, luminescence, dose response (AID 1990); format: functional, cell-based
cells [8] = format: functional, cell-based; conditions: HEK-CNG
[9] = NIH3T3 cell viability loss – ATP luminescence, mouse fibroblasts, counter-screen, dose response (AID 2010); format: functional, cell-based;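 further: cells exposed to compound for about 90 hours before reading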
[10] = Trypanosoma cruzi growth suppression in host cells – NIH3T3 host cells, beta-gal luminescence, confirmation (AID 2044); format: functional, cell-based;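 further: intracellular parasites grown in NIH/3T3 mouse fibroblasts as host cells; luminescent beta-galactosidase reporter signal from transgenic T. cruzi replicating inside host cells; inhibitors lower the luminescence signal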
cells [11] = assay: cells
[12] = viability of uninfected HEp-2 cells – cell-based, HTS, cytotoxicity control for RSV inhibitor project, dose response (AID 2410); format: functional; conditions: human respiratory syncytial virus
[13] = molecular target: T3, RNA-editing ligase 1, mitochondrial (Trypanosoma brucei brucei, UniProt P86926); assay: inhibition of trypanosome RNA editing ligase – biochemical, fluorescence, Trypanosoma brucei, dose response (AID 1117295); format: functional
T3 sequence (P86926 whole entry): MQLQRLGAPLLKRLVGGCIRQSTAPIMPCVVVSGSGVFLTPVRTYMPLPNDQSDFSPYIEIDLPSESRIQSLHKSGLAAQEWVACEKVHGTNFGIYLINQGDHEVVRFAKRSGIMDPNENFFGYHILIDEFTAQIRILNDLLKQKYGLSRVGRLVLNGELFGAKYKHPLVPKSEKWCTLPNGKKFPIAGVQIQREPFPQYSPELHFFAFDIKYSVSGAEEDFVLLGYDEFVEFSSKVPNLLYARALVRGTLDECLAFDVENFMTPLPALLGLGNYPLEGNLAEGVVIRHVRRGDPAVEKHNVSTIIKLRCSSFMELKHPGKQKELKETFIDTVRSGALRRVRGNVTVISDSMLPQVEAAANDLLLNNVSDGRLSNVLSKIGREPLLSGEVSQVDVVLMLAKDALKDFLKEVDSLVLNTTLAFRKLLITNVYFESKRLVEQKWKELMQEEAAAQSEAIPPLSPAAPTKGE

[14] = molecular target: Induced myeloid leukemia cell differentiation protein Mcl-1 (Homo sapiens, UniProt Q07820); format: functional
Induced myeloid leukemia cell differentiation protein Mcl-1, sequence (Q07820 whole entry): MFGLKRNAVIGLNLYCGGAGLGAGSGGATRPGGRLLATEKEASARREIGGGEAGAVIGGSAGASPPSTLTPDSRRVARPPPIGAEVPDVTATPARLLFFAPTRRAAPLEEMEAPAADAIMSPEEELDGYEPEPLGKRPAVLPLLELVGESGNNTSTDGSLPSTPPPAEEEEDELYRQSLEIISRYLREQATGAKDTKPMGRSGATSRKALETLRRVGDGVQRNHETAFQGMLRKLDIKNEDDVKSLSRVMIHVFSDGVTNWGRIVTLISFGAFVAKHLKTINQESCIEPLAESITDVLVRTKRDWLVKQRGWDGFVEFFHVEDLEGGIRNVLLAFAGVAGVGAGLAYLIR

[15] = molecular target: T4, Zinc finger protein mex-5 (Caenorhabditis elegans, UniProt Q9XUB2); assay: potency of MEX-5 RNA-binding blockers – biochemical, C. elegans, fluorescence polarization, dose response (AID 1960)
T4 sequence (Q9XUB2 whole entry): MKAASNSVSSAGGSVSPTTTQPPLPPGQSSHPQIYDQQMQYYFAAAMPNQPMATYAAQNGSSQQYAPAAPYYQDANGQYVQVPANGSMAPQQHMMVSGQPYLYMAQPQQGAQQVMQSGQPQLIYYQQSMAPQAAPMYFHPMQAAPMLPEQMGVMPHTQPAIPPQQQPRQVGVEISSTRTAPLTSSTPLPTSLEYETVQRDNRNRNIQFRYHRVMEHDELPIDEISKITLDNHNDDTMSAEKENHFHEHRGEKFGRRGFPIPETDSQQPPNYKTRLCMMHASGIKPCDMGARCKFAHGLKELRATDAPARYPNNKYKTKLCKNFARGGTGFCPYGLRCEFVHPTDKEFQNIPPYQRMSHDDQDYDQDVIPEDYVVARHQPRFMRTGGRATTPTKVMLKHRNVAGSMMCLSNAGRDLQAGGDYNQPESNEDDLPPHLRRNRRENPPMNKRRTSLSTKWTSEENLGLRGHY

[16] = molecular target: T5, RNA-binding protein pos-1 (Caenorhabditis elegans, UniProt G5EF15); assay: disruptors of C. elegans POS-1 RNA interaction – biochemical, fluorescence polarization, dose response (AID 1964);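 further: purified POS-1 fused to maltose binding protein made in E. coli; potency of compounds blocking POS-1 binding to fluorescent RNA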
T5 sequence (G5EF15 whole entry): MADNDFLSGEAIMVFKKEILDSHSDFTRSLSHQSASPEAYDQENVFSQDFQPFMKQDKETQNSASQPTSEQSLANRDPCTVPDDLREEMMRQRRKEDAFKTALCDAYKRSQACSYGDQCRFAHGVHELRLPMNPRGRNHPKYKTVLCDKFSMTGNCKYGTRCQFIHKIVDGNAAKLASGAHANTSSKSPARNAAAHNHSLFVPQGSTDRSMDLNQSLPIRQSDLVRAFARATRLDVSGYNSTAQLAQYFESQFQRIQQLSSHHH

[17] = HIV-1 Vif–A3G interaction blockers – biochemical, TR-FRET, GST-Vif 1-94, biotin-A3G peptide, dose response retest, primary screen (AID 1117319); format: functional;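 further: TR-FRET signal of purified GST-Vif binding a biotinylated A3G peptide; inhibitors lower the FRET signal by blocking Vif and A3G binding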
Protein Tat = molecular target: T6, Protein Tat (Human immunodeficiency virus type 1 group M subtype B (isolate HXB2)(HIV-1), UniProt P04608); format: functional;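 further: tat binding to TAR RNA read out by fluorescence polarization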
T6 sequence (P04608 whole entry): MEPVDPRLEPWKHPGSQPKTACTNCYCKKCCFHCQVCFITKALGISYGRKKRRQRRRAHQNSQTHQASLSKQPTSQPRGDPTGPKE

Cytochrome P450 2D6, sequence (P10635 whole entry): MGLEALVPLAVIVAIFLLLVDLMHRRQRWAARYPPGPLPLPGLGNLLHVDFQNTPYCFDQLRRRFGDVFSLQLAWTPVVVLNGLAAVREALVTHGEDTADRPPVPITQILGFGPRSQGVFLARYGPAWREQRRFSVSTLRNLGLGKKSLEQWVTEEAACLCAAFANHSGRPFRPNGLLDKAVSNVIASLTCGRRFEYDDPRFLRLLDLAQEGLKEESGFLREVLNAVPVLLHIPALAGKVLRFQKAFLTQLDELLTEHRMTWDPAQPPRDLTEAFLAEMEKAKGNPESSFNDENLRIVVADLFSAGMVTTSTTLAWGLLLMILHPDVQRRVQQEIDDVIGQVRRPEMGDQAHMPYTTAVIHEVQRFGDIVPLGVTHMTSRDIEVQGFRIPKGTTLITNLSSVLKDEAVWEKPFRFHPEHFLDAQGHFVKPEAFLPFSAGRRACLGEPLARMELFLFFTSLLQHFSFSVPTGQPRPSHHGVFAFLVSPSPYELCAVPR

CC(C)C(c1nnnn1Cc1ccccc1)N(CCCO)Cc1cc2cc3c(cc2nc1O)OCO3 (configuration not stated)
EC50 [1]: > 50 µM (active)

C[C@@H](/C=C\c1cccc(Oc2ccc(F)cc2)c1)N(O)C(N)=O
AC50 (Cytochrome P450 2D6): 10 µM (inconclusive)
AC50 (Cytochrome P450 2C9 [2]): 25.1 µM (inconclusive)
AC50 (Cytochrome P450 2C9 [3]): 31.6 µM (inconclusive)

C[C@]12CC[C@H]3C(CCC4(O)CC(O)CC[C@]34C=O)C1=CC[C@H]2c1ccc(=O)oc1 (some centres not stated)
EC50 [4]: 1.62 µM (active)
AC50 [5]: 3.49 µM (active)
IC50 (Galanin receptor type 3): > 29.9 µM (inactive)
EC50 [6]: 5.93 µM (active)
CC50 (Vero): 20.5 µM (active)
EC50 [7]: 6.93 µM (active)
EC50 (cells [8]): > 29.9 µM (inactive)

CCNc1nc(N)nc(Oc2ccc(OCCOc3ccc(Cl)cc3Cl)nn2)n1
EC50 [1]: > 50 µM (active)
EC50 [9]: 6.72 µM (active)
EC50 [10]: 0.668 µM (active)

NC(=O)[C@H]1CC2(CC(c3cccc(NC(=O)COc4ccc(Cl)cc4)c3)=NO2)CN1C(=O)c1ccccc1C(=O)c1ccccc1 (some centres not stated)
IC50 (cells [11]): 24.9 µM (active)
CC50 [12]: 12.3 µM (active)

CC(NCC(O)COc1ccc2ccccc2c1)c1ccccc1 (configuration not stated)
IC50 (cells [11]): > 25 µM (active)
IC50 [13]: > 96.6 µM (inactive)
CC50 [12]: 24.1 µM (active)

Cc1cc(C)c2c(c1)C1C=CCC1C(c1ccc(S(=O)(=O)N3CCOCC3)cc1)N2 (configuration not stated)
IC50 [14]: 2.74 µM (active)
EC50 [15]: > 300 µM (not active)
IC50 (cells [11]): 11.7 µM (active)
CC50 [12]: 15.6 µM (active)
EC50 [16]: > 300 µM (not active)

Cc1ccc(N2C(=O)[C@@H]3[C@H](C2=O)[C@H]2C=CC=NN2[C@@H]3C(=O)Nc2ccc(Cl)cc2)cc1
EC50 [1]: > 50 µM (active)
IC50 [17]: > 100 µM (active)
IC50 (Protein Tat): > 100 µM (active)
